According to patent US9113629B2, “4-amino-6-(4-substituted-phenyl)-picolinates and 6-amino-2-(4-substituted-phenyl)-pyrimidine-4-carboxylates and their use as herbicides” (DOW AGROSCIENCES LLC, priority 2013, dated 2015):
Where two headings read alike, the source gives them in different places.

Legend:
[1] = tested on: Key Broadleaf Weed and Crop Species; test: Post-emergent Test II herbicidal activity (Table 5); assay type: in vivo; conditions: post-emergence, 336 h, 14 days after application; for pest or weed control at 70 g/ha: application rate 70 g ai/ha; for pest or weed control at 140 g/ha: application rate 140 g ai/ha
Procedure, shortened: (§1)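 Plants grown in Metro-Mix 360 (pH 6.0–6.8) in a greenhouse (~15 h photoperiod, 23–29 °C day) to first or second true leaf stage, then sprayed with compound in acetone/DMSO/aqueous crop-oil-surfactant carrier at 187 L/ha by track sprayer. Injury visually scored 0–100% versus untreated plants after 14 d.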

[2] = tested on: Key Grass and Sedge Weeds as well as Grass Crops; test: Post-emergent Test II herbicidal activity (Table 6); assay type: in vivo; conditions: post-emergence, 336 h; for pest or weed control at 70 g/ha: 70 g ai/ha; for pest or weed control at 140 g/ha: 140 g ai/ha
Procedure, shortened: as §1

[3] = ABUTH: velvetleaf (Abutilon theophrasti), read-out: Visual Growth Reduction (%) 14 Days After Application, ABUTH
[4] = AMARE: redroot pigweed (Amaranthus retroflexus), read-out: Visual Growth Reduction (%) 14 Days After Application, AMARE
[5] = BRSNN: oilseed-rape, canola (Brassica napus), read-out: Visual Growth Reduction (%) 14 Days After Application, BRSNN
[6] = CHEAL: lambsquarters (Chenopodium album), read-out: Visual Growth Reduction (%) 14 Days After Application, CHEAL
[7] = EPHHL: wild poinsettia (Euphorbia heterophylla), read-out: Visual Growth Reduction (%) 14 Days After Application, EPHHL
[8] = HELAN: sunflower (Helianthus annuus), read-out: Visual Growth Reduction (%) 14 Days After Application, HELAN
[9] = VIOTR: wild pansy (Viola tricolor), read-out: Visual Growth Reduction (%) 14 Days After Application, VIOTR
[10] = CYPES: yellow nutsedge (Cyperus esculentus), read-out: Visual Growth Reduction (%) 14 Days After Application, CYPES
[11] = DIGSA: crabgrass (Digitaria sanguinalis), read-out: Visual Growth Reduction (%) 14 Days After Application, DIGSA
[12] = ECHCG: barnyardgrass (Echinochloa crus-galli), read-out: Visual Growth Reduction (%) 14 Days After Application, ECHCG
[13] = ORYSA: rice (Oryza sativa), crop, read-out: Visual Growth Reduction (%) 14 Days After Application, ORYSA
[14] = SETFA: giant foxtail (Setaria faberi), read-out: Visual Growth Reduction (%) 14 Days After Application, SETFA
[15] = SORVU: grain sorghum (Sorghum vulgare), read-out: Visual Growth Reduction (%) 14 Days After Application, SORVU
[16] = TRZSS (wheat, Triticum aestivum), crop, read-out: Visual Growth Reduction (%) 14 Days After Application, TRZSS
[17] = ZEAMX: maize, corn (Zea mays), crop, read-out: Visual Growth Reduction (%) 14 Days After Application, ZEAMX

COC(=O)c1nc(-c2ccc(C(F)F)cc2)c(F)c(N)c1Cl [Compound 209]
pest or weed control at 70 g/ha [1, 3]: 95 to 100%
pest or weed control at 140 g/ha [1, 3]: 95 to 100%
pest or weed control at 70 g/ha [1, 4]: 95 to 100%
pest or weed control at 140 g/ha [1, 4]: 95 to 100%
pest or weed control at 70 g/ha [1, 5]: 85 to 94%
pest or weed control at 140 g/ha [1, 5]: 85 to 94%
pest or weed control at 70 g/ha [1, 6]: 95 to 100%
pest or weed control at 140 g/ha [1, 6]: 95 to 100%
pest or weed control at 70 g/ha [1, 7]: 95 to 100%
pest or weed control at 140 g/ha [1, 7]: 95 to 100%
pest or weed control at 70 g/ha [1, 8]: 95 to 100%
pest or weed control at 140 g/ha [1, 8]: 95 to 100%
pest or weed control at 70 g/ha [1, 9]: 0 to 29%
pest or weed control at 140 g/ha [1, 9]: 0 to 29%
pest or weed control at 70 g/ha [2, 10]: 85 to 94%
pest or weed control at 140 g/ha [2, 10]: 85 to 94%
pest or weed control at 70 g/ha [2, 11]: 45 to 59%
pest or weed control at 140 g/ha [2, 11]: 60 to 74%
pest or weed control at 70 g/ha [2, 12]: 95 to 100%
pest or weed control at 140 g/ha [2, 12]: 95 to 100%
pest or weed control at 70 g/ha [2, 13]: 0 to 29%
pest or weed control at 140 g/ha [2, 13]: 0 to 29%
pest or weed control at 70 g/ha [2, 14]: 45 to 59%
pest or weed control at 140 g/ha [2, 14]: 75 to 84%
pest or weed control at 70 g/ha [2, 15]: 95 to 100%
pest or weed control at 140 g/ha [2, 15]: 95 to 100%
pest or weed control at 70 g/ha [2, 16]: 0 to 29%
pest or weed control at 140 g/ha [2, 16]: 0 to 29%
pest or weed control at 70 g/ha [2, 17]: 75 to 84%
pest or weed control at 140 g/ha [2, 17]: 85 to 94%
